Active and inactive are the calls of the source. No cut-off for these calls is given here.
Key:
Assay type in all cases: cell-free
[1] = target: Proteasome Macropain subunit (Homo sapiens) (UniProt P49721); assay: Inhibition of 26S proteasome beta 2 in human HEK293 cell lysate assessed as residual activity at 0.167 uM after 1 hr
[2] = target: Proteasome Macropain subunit (Homo sapiens) (UniProt P49721); assay: Inhibition of 26S proteasome beta 2 in human HEK293 cell lysate assessed as residual activity at 0.019 uM after 1 hr
[3] = target: T1, Proteasome component C5 (Homo sapiens) (UniProt P20618); assay: Displacement of fluorescent labeled MV151 from 26S proteasome beta 1 in human HEK293 cell lysate assessed as residual activity at 1 uM after 1 hr by SDS-PAGE
T1 sequence (whole entry): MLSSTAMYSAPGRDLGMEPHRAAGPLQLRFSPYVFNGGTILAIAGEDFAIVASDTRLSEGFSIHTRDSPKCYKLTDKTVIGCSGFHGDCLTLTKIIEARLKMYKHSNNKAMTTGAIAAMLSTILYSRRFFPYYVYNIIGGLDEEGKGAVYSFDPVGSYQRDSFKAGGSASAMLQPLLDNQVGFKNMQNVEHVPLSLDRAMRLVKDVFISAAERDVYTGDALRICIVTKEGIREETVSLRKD

[4] = target: T1, Proteasome component C5 (Homo sapiens); assay: Inhibition of 26S proteasome beta 1 in human HEK293 cell lysate assessed as residual activity at 13.5 uM after 1 hr
[5] = target: Proteasome Macropain subunit (Homo sapiens) (UniProt P49721); assay: Inhibition of 26S proteasome beta 2 in human HEK293 cell lysate assessed as residual activity at 0.5 uM after 1 hr
[6] = target: Proteasome Macropain subunit (Homo sapiens) (UniProt P49721); assay: (§1) Inhibition of 26S proteasome beta 2 in human HEK293 cell lysate assessed as residual activity at […] after 1 hr
[7] = target: T1, Proteasome component C5 (Homo sapiens); assay: Inhibition of 26S proteasome beta 1 in human HEK293 cell lysate assessed as residual activity at 0.167 uM after 1 hr
[8] = target: Proteasome Macropain subunit (Homo sapiens) (UniProt P49721); assay: Inhibition of 26S proteasome beta 2 in human HEK293 cell lysate assessed as residual activity at 0.006 uM after 1 hr
[9] = target: T1, Proteasome component C5 (Homo sapiens); assay: (§2) Inhibition of 26S proteasome beta 1 in human HEK293 cell lysate assessed as residual activity at […] after 1 hr
[10] = target: T1, Proteasome component C5 (Homo sapiens); assay: Inhibition of 26S proteasome beta 1 in human HEK293 cell lysate assessed as residual activity at 1.5 uM after 1 hr
[11] = target: Proteasome Macropain subunit (Homo sapiens) (UniProt P49721); assay: Inhibition of 26S proteasome beta 2 in human HEK293 cell lysate assessed as residual activity at 13.5 uM after 1 hr
[12] = target: T1, Proteasome component C5 (Homo sapiens); assay: as §2; remark: listed apart in the source
[13] = target: T1, Proteasome component C5 (Homo sapiens); assay: Inhibition of 26S proteasome beta 1 in human HEK293 cell lysate assessed as residual activity at 0.019 uM after 1 hr
[14] = target: Proteasome Macropain subunit (Homo sapiens) (UniProt P49721); assay: Inhibition of 26S proteasome beta 2 in human HEK293 cell lysate assessed as residual activity at 0.002 uM after 1 hr
[15] = target: T1, Proteasome component C5 (Homo sapiens); assay: Displacement of fluorescent labeled MV151 from 26S proteasome beta 1 in human HEK293 cell lysate assessed as residual activity at 100 uM after 1 hr by SDS-PAGE
[16] = target: Proteasome Macropain subunit (Homo sapiens) (UniProt P49721); assay: Inhibition of 26S proteasome beta 2 in human HEK293 cell lysate assessed as residual activity at 0.001 uM after 1 hr
[17] = target: Proteasome Macropain subunit (Homo sapiens) (UniProt P49721); assay: as §1; remark: listed apart in the source
[18] = target: Proteasome Macropain subunit (Homo sapiens) (UniProt P49721); assay: Displacement of fluorescent labeled MV151 from 26S proteasome beta 2 in human HEK293 cell lysate assessed as residual activity at 100 uM after 1 hr by SDS-PAGE
[19] = target: T2, Proteasome Macropain subunit MB1 (Homo sapiens) (UniProt P28074); assay: Displacement of fluorescent labeled MV151 from 26S proteasome beta 5 in human HEK293 cell lysate assessed as residual activity at 1 uM after 1 hr by SDS-PAGE
T2 sequence (whole entry): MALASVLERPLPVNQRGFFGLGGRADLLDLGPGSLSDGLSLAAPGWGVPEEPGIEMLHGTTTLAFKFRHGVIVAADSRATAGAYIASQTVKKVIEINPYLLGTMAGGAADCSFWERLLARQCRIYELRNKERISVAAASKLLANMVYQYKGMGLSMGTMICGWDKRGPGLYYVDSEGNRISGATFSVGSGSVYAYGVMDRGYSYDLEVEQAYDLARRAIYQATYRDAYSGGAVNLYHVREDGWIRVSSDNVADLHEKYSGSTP

[20] = target: T1, Proteasome component C5 (Homo sapiens); assay: Inhibition of 26S proteasome beta 1 in human HEK293 cell lysate assessed as residual activity at 0.006 uM after 1 hr
[21] = target: Proteasome Macropain subunit (Homo sapiens) (UniProt P49721); assay: Inhibition of 26S proteasome beta 2 in human HEK293 cell lysate assessed as residual activity at 1.5 uM after 1 hr
[22] = target: T1, Proteasome component C5 (Homo sapiens); assay: Inhibition of 26S proteasome beta 1 in human HEK293 cell lysate assessed as residual activity at 0.001 uM after 1 hr
[23] = target: T1, Proteasome component C5 (Homo sapiens); assay: Inhibition of 26S proteasome beta 1 in human HEK293 cell lysate assessed as residual activity at 0.002 uM after 1 hr
[24] = target: T1, Proteasome component C5 (Homo sapiens); assay: Inhibition of 26S proteasome beta 1 in human HEK293 cell lysate assessed as residual activity at 0.5 uM after 1 hr
[25] = target: T2, Proteasome Macropain subunit MB1 (Homo sapiens); assay: Displacement of fluorescent labeled MV151 from 26S proteasome beta 5 in human HEK293 cell lysate assessed as residual activity at 100 uM after 1 hr by SDS-PAGE
[26] = target: Proteasome Macropain subunit (Homo sapiens) (UniProt P49721); assay: Displacement of fluorescent labeled MV151 from 26S proteasome beta 2 in human HEK293 cell lysate assessed as residual activity at 1 uM after 1 hr by SDS-PAGE
[27] = target: T1, Proteasome component C5 (Homo sapiens); assay: Displacement of fluorescent labeled MV151 from 26S proteasome beta 1 in human HEK293 cell lysate assessed as disappearance of band at 0.1 to 1 uM after 1 hr by SDS-PAGE
[28] = target: T2, Proteasome Macropain subunit MB1 (Homo sapiens); assay: Displacement of fluorescent labeled MV151 from 26S proteasome beta 5 in human HEK293 cell lysate assessed as disappearance of band at 0.1 to 1 uM after 1 hr by SDS-PAGE

Proteasome Macropain subunit (Homo sapiens), sequence (P49721 whole entry): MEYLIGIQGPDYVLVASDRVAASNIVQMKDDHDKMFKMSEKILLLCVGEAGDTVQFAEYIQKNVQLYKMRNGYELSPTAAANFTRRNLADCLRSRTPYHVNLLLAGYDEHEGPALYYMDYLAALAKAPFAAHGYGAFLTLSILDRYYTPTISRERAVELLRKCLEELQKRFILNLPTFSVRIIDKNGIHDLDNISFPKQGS

Activity [1] [%] | Activity [2] [%] | Activity [3] [%] | Activity [4] [%] | Activity [5] [%] | Activity [6] [%] | Activity [7] [%] | Activity [8] [%] | Activity [9] [%] | Activity [10] [%] | Activity [11] [%] | Activity [12] [%] | Activity [13] [%] | Activity [14] [%] | Activity [15] [%] | Activity [16] [%] | Activity [17] [%] | Activity [18] [%] | Activity [19] [%] | Activity [20] [%] | SMILES | also measured
89 | 82 | 139 | 58.3 | 65.8 | 115 | 84.9 | 105 | 104 | 69.9 | 10.6 | 54 | 76.8 | 109 | 7.2 | 106 | 26.1 | 133 | 4.6 | 96.5 | CC(C)C[C@H](NC(=O)[C@H](Cc1ccccc1)NC(=O)[C@H](Cc1ccccc1)NC(=O)[C@H](Cc1ccccc1)N=[N+]=[N-])C(=O)[C@@]1(C)CO1 | Activity [21]: 37%; Activity [22]: 105%; Activity [23]: 100%; Activity [24]: 58.4%
112 | 109 | 248 | 71.2 | 95.6 | 120 | 99.5 | 90.7 | 105 | 90.1 | 54.1 | 77.6 | 104 | 106 | 15.4 | 105 | 71 | 116 | 11.6 | 77.3 | CC(C)C[C@H](NC(=O)[C@H](Cc1c(F)c(F)c(F)c(F)c1F)NC(=O)[C@H](Cc1ccccc1)NC(=O)[C@H](Cc1ccccc1)N=[N+]=[N-])C(=O)[C@@]1(C)CO1 | Activity [21]: 84.2%; Activity [22]: 100%; Activity [23]: 106%; Activity [24]: 98.3%
– | – | 192 | – | – | – | – | – | – | – | – | – | – | – | 100 | – | – | 149 | 79 | – | CC(C)C[C@H](NC(=O)[C@H](Cc1cc(C(F)(F)F)cc(C(F)(F)F)c1)NC(=O)[C@H](Cc1cc(C(F)(F)F)cc(C(F)(F)F)c1)NC(=O)[C@H](Cc1ccccc1)N=[N+]=[N-])C(=O)[C@@]1(C)CO1 | Activity [25]: 31%; Activity [26]: 48%
– | – | – | – | – | – | – | – | – | – | – | – | – | – | – | – | – | – | – | – | CC(C)C[C@H](NC(=O)[C@H](Cc1ccccc1)NC(=O)c1cnccn1)B1OC2C[C@@H]3C[C@@H](C3(C)C)[C@]2(C)O1 (stereo partly specified) | Activity [27]: Active; Activity [28]: Active
